What all share (type): cell-based, human
The subject of assay [1] is PPC-1 cells. Put plainly: T7 phage internalization into PPC-1 (PPC1) cells at 37° C. (acid wash and titration, or anti-T7 staining and confocal imaging). The note with it: for Effect of endocytosis inhibitor on uptake of CendR peptides (RPARPAR phage internalization): 90 minutes at 37° C., acid wash and titration; for Phage internalization into PPC-1 cells (in words): 37° C.; for Internalization into PPC1 cells compared to native iRGD phage: truncated versions of iRGD phage. Here is the method:
(§1) FIG. 2A: Binding of T7 phage to prostate cancer cells depends on the display of a C-terminal arginine on the phage particles. PPC1 cells were incubated with T7 bacteriophage displaying derivatives of the G7 (upper graph) or RPARPAR peptide (SEQ ID NO: 2) (lower graph) at 4° C., and the bound phage was quantified by plaque assay. Binding is expressed in fold over of the non-binding G7 control phage. FIG. 2B: Phage displaying C-terminal arginine is internalized into cultured PPC1 cells (arrow, nuclear internalization; arrowhead, cytoplasmic internalization). A panel of T7 phage clones were incubated at 37° C. with PPC1 cells grown on collagen-coated coverslips, stained with anti T7 antibody and imaged by confocal microscopy.
(§2) Phage display. For in vivo phage display, mice were injected intravenously with 10^10 plaque-forming units (pfu) of T7 phage followed by perfusion of the circulatory system and determination of the bound phage in target organs by titration. For cell binding studies on cultured cells (in vitro display) and organ-derived cell suspensions (ex vivo display), the cells were incubated with 10^9 pfu of phage at 4° C., washed, lysed, and quantified by titration. Incubation at 37° C. followed by low pH wash (glycine-HCl, pH 2.5) was used to assess the amount of internalized phage.
(§3) For biopanning and phage binding studies (Hoffman, J. A. et al., 2004), cultured cells were grown to confluence and harvested with trypsin and mouse organs were dissociated using Medimachine (BD Biosciences, San Jose, CA). To measure phage binding, 10^6 cells in binding buffer (DMEM containing 1% BSA) were incubated with 10^9 pfu/ml of T7 phage for 1 hour at 4° C. The cells were washed 4 times with the binding buffer, lysed in LB bacterial growth medium containing 1% NP-40, and titrated. Phage internalization assays used the same procedure, except that the cells were incubated with the phage at 37° C., and that an acidic buffer (500 mM sodium chloride, 0.1 M glycine, 1% BSA, pH 2.5) was used instead of binding buffer in the second wash.
(§4) Centrifugation on a silicone oil cushion (1.03 g/ml) was used to separate unbound phage from cells during time course experiments. Inhibitors of phage binding and internalization (heparin, chondroitin, glycocalyx removal enzymes, endocytosis inhibitors, free peptides, quantum dots and UV-inactivated phage) were added to the cells 20 minutes prior to incubation with phage. Endocytosis inhibitors used in this study were the following: nystatin (50 μg/ml), genistein (100 μg/ml), chlorpromazine (5 μg/ml), 5-(N-ethyl-N-isopropyl) amiloride (100 μM), wortmannin (10 μM).
Immunofluorescence staining. Cultured cells (2×10^5 cells) were grown in 6-well tissue culture plates on collagen-I coated coverslips (BD Biosciences, San Jose, CA) overnight at 37° C. in 5% CO2, and incubated with 10^8 pfu of T7 phage. The cells were fixed in 4% paraformaldehyde or cold (−20° C.) methanol, and stained with antibodies. Nuclei were stained with DAPI or […]. A polyclonal rabbit anti-T7 antibody was generated in-house as described previously (Laakkonen, P. et al. 2002b), except that an additional phage purification step using […] centrifugation was included. Other primary antibodies used were rat anti-mouse CD31 monoclonal antibody (BD Biosciences), rabbit anti-NRP-1, mouse anti-human Lamp-1, mouse anti-human caveolin (Millipore, Temecula, CA), mouse anti-NRP-1 (Miltenyi Biotec Inc., Auburn, CA), mouse anti-human EEA-1 (BD Biosciences, San Jose, CA). The secondary antibodies, Alexa594 goat antibodies to mouse, rat, and rabbit immunoglobulins and Alexa488 donkey anti-rabbit antibody were from Invitrogen (Carlsbad, CA). Cells and tissue sections were examined by confocal microscopy (Fluoview 500, Olympus America Inc., Center Valley, PA).

Assay [2] concerns PPC-1 cells. As to the kind of experiment: Binding and internalization of peptide-coated quantum dots by PPC-1 cells (confocal/fluorescence microscopy).
In assay [3] the test system is PPC-1 cells. As to the kind of experiment: T7 phage binding to PPC-1 (PPC1) cells at 4° C., quantified by titration/plaque assay. The note with it: for Effect of glycosaminoglycan digestion or competition on RPARPAR phage binding: data not shown. Here is the method:
as §1, §2, §3, §4

The test system of assay [4] is PPC-1 cells. Put plainly: Confocal immunofluorescence co-staining of phage/qdots with cellular markers in PPC-1 cells. The note with it: immunofluorescent co-staining.
The subject of assay [5] is PPC-1 cells. As to the kind of experiment: Protease treatment of phage followed by phage binding assay on PPC-1 cells at 4° C. As to the method:
5×10^8 phage particles were incubated with indicated volumes of 2.5% trypsin at 37° C. for 20 min, followed by incubation of the phage with 1×10^6 PPC1 cells at 4° C. for 3 hours. Binding is expressed as fold over non-binding G7 control phage (the internalization of which was not affected by the trypsin treatment).
10^9 pfu of RPARPARA (SEQ ID NO:3) phage was treated with indicated amounts of trypsin at 37° C. followed by phage binding assay at 4° C. The data are representative of 4 independent binding experiments.
FIGS. 20A-20C show urokinase dependent CendR peptide. FIG. 20A: The design of a uPA-activatable CendR peptide (uCendR). […] Statistical analysis was performed with ANOVA (b); n=3; error bars indicate s.d.; triple asterisk, p<0.001. Scale bars: 20 μm.
as §3
Protease treatment of phage and qdots. 10^9 phage particles or 50 μl of peptide-coated qdots phage were treated with 50 iu of uPA, 25 μg of crystalline trypsin, 50 iu of thrombin, or 25 μg of collagenase type I (all Sigma, St. Louis, Mo).

Entries after “also recorded” stand apart in the source; their conditions may differ. Ends that are not written are not given here.

This is an account of results in patent US12708673B2, “Methods and compositions related to peptides and proteins with c-terminal elements” (Sanford Burnham Prebys Medical Discovery Institute, priority 2008, dated 2026).

For `CCN(c1nc(N)c(C(=O)N=C(N)N)nc1Cl)C(C)C` [5-(N-ethyl-N-isopropyl) amiloride, reference compound], in the assay on PPC-1 cells [1], the “Effect of endocytosis inhibitor on uptake of CendR peptides (RPARPAR phage internalization)” value (“Effect of endocytosis inhibitor” for short) is given as “None of these inhibitors affected the uptake”.

Regarding `N=C(N)NC(=O)c1nc(Cl)c(N)nc1N` [Amiloride, reference compound], the “Effect on uptake of uPA-CendR qdots” value in the assay with PPC-1 cells [2] was “inhibited uptake”.

On to `CN(C)CCCN1c2ccccc2Sc2ccc(Cl)cc21` [chloropromazine, reference compound], for which the “Effect of endocytosis inhibitor” value in the assay with PPC-1 cells [1] was “None of these inhibitors affected the uptake”.

Take `O=c1c(-c2ccc(O)cc2)coc2cc(O)cc(O)c12` [genistein, reference compound]: in the assay on PPC-1 cells [1], the “Effect of endocytosis inhibitor” value is given as “None of these inhibitors affected the uptake”.

Regarding `C[C@@H]1[C@H](O)[C@@H](C)/C=C/C=C/CC/C=C/C=C/C=C/C=C/C(O[C@H]2O[C@H](C)[C@@H](O)[C@H](N)[C@@H]2O)CC2O[C@](O)(CC(O)C(O)CCC(O)CC(O)CC(O)CC(=O)O[C@H]1C)CC(O)C2C(=O)O` (some centres unmarked) [nystatin, reference compound], the “Effect of endocytosis inhibitor” value in the assay with PPC-1 cells [1] was “None of these inhibitors affected the uptake”.

With ATWLPPR [A7R phage, reference compound], the “Phage binding to PPC-1 cells (in words)” value with PPC-1 cells [3] (4° C.) is “bound”.

As to “CG7C [CG7C control phage, reference compound]”, the “Phage internalization into PPC-1 cells (in words)” value with PPC-1 cells [1] was “does not”.

On to CRGDK [CRGDK phage], for which the “Internalization into PPC1 cells compared to native iRGD phage” value with PPC-1 cells [1] is given as “higher ability to internalize”.

As for CRGDKG [CRGDKG phage], in the assay with PPC-1 cells [1], the “Internalization into PPC1 cells compared to native iRGD phage” value is reported as “higher ability to internalize”.

With D-rparpar [D-rparpar qdots], the “Binding and internalization of peptide-coated qdots (in words)” value (shortened to “Binding and internalization … (in words)”) with PPC-1 cells [2] is recorded as “greatly reduced ability to trigger uptake of quantum dots”.

On to GGGGGGR [G6R phage], for which the “Phage binding to PPC-1 cells (in words)” value in the assay on PPC-1 cells [3] (4° C.) is given as “weak phage binding”.

For the molecule RGERPPR [RGERPPR phage], the “Phage binding to PPC-1 cells (in words)” value in the assay on PPC-1 cells [3] (4° C.) is “robust binding and internalization”. Moreover, in the assay with PPC-1 cells [1], the “Phage internalization into PPC-1 cells (in words)” value was “robust binding and internalization”.

Consider RPAR [RPAR phage], for which the “Effect of UV-inactivated phage on CRGDK phage internalization” value in the assay on PPC-1 cells [1] (pre-incubation, various concentrations) is reported as “inhibited by RPAR phage in a dose-dependent fashion”.

“RPARPAR (also: biotinylated, site not given here, on streptavidin quantum dot) [RPARPAR qdots, streptavidin quantum dots coated with biotinylated RPARPAR peptide with free C-terminus]”: the “Binding and internalization … (in words)” value in the assay on PPC-1 cells [2] is “robust binding and internalization; also recorded: bound and were internalized in a manner indistinguishable from the phage particles”. In the assay on PPC-1 cells [2] (qdots, 37° C., live cells), the “Time to perinuclear accumulation” value stood at 1 h and the “Time to plasma membrane association” value came out at 15 min. Also, in the assay on PPC-1 cells [3] (4° C.), the “Effect of excess qdots on G6R phage binding” value was “blocked”; the “Effect of preincubating cells with qdots on binding of RPARPAR, RGERPPR and RVTRPPR phage” value was “inhibited”. The “Effect of qdots on binding and internalization of RPARPAR phage” value in the assay on PPC-1 cells [3] (bound at 4° C., internalized at 37° C. with low pH wash) was “inhibited both the binding and internalization of RPARPAR phage”. The “Co-localization with NRP-1” value in the assay with PPC-1 cells [4] is “co-localize with NRP-1 at the cell surface and inside the cells”.

In the case of RPARPAR-NH2 [RPARPAR-NH2 qdots], the “Binding and internalization … (in words)” value with PPC-1 cells [2] is “abolished the binding and internalization; also recorded: blocked qdot internalization”.

On to “RPARPARA (also: biotinylated, site not given here, on streptavidin quantum dot) [RPARPARA qdots]”, for which the “Binding and internalization … (in words)” value in the assay on PPC-1 cells [2] is reported as “prevented”.

Take “RPARSGRSAGGSVA (also: biotinylated, site not given here, on streptavidin quantum dot) [uCendR qdots]”: in the assay on PPC-1 cells [2] (no uPA treatment), the “Internalization of untreated qdots” value was “are not internalized”. In addition, the “Internalization of qdots after uPA treatment” value in the assay on PPC-1 cells [2] is on record as “triggers internalization”; in the assay on PPC-1 cells [2] (listed as RPARSGRSAGGSVA qdots) it was “internalized in uPA sensitive fashion”.

On to RPARSGRSAGGSVA [uPA-CendR phage], for which the “Effect of phage treatment with collagenase-I on binding” value with PPC-1 cells [5] (25 μg of collagenase type I) is “had no effect”. Further, in the assay on PPC-1 cells [5] (50 iu of thrombin), the “Effect of phage treatment with thrombin on binding” value is on record as “had no effect”. Besides, in the assay on PPC-1 cells [5] (50 iu of uPA prior to cell binding), the “Elevation of binding by pretreatment with uPA” value is recorded as “more than 100 fold”. Besides, in the assay on PPC-1 cells [5] (no protease treatment), the “Binding of untreated phage to PPC-1 cells over control G7 phage” value is recorded as “did not bind”. Also, the “Effect of trypsin treatment of phage on binding (in words)” value with PPC-1 cells [5] (trypsin) is “greatly enhanced the binding”.

For RVTRPPR [RVTRPPR phage], in the assay with PPC-1 cells [3] (4° C.), the “Phage binding to PPC-1 cells (in words)” value was “robust binding and internalization”. The “Phage internalization into PPC-1 cells (in words)” value with PPC-1 cells [1] is “robust binding and internalization”.

Turning to “TKPPR [enhanced tuftsin phage, reference compound]”, the “Phage binding to PPC-1 cells (in words)” value in the assay with PPC-1 cells [3] (4° C.) is on record as “bound”.

“chondroitin sulfate [reference compound]”: the “Effect of glycosaminoglycan digestion or competition on RPARPAR phage binding” value (shortened to “Effect … on RPARPAR phage binding”) in the assay on PPC-1 cells [3] is “had no effect”.

For the molecule chondroitinase ABC [reference compound], the “Effect … on RPARPAR phage binding” value in the assay on PPC-1 cells [3] is given as “had no effect”.

For the molecule heparin [reference compound], the “Effect … on RPARPAR phage binding” value in the assay on PPC-1 cells [3] is given as “had no effect”.

B1: heparinase III: enzyme used for digestion of cell surface glycosaminoglycans (protein, UniProt Q59289 25-659, looked up)
Heparin-sulfate lyase: QSSSITRKDFDHINLEYSGLEKVNKAVAAGNYDDAAKALLAYYREKSKAREPDFSNAEKPADIRQPIDKVTREMADKALVHQFQPHKGYGYFDYGKDINWQMWPVKDNEVRWQLHRVKWWQAMALVYHATGDEKYAREWVYQYSDWARKNPLGLSQDNDKFVWRPLEVSDRVQSLPPTFSLFVNSPAFTPAFLMEFLNSYHQQADYLSTHYAEQGNHRLFEAQRNLFAGVSFPEFKDSPRWRQTGISVLNTEIKKQVYADGMQFELSPIYHVAAIDIFLKAYGSAKRVNLEKEFPQSYVQTVENMIMALISISLPDYNTPMFGDSWITDKNFRMAQFASWARVFPANQAIKYFATDGKQGKAPNFLSKALSNAGFYTFRSGWDKNATVMVLKASPPGEFHAQPDNGTFELFIKGRNFTPDAGVFVYSGDEAIMKLRNWYRQTRIHSTLTLDNQNMVITKARQNKWETGNNLDVLTYTNPSYPNLDHQRSVLFINKKYFLVIDRAIGEATGNLGVHWQLKEDSNPVFDKTKNRVYTTYRDGNNLMIQSLNADRTSLNEEEGKVSYVYNKELKRPAFVFEKPKKNAGTQNFVSIVYPYDGQKAPEISIRENKGNDFEKGKLNLTLTINGKQQLVLVP
Regarding B1, the “Effect … on RPARPAR phage binding” value with PPC-1 cells [3] is “had no effect”.
